The values below come from US7491794B2, “Macrocyclic compounds as inhibitors of viral replication” (Intermune, Inc., priority 2003, dated 2009).

Read-outs that look alike come from different tables or passages of the source.

Experiment [1] deals with HCV sub-genomic replicon, GS4.3. The experiment can be described thus: Quantitation by ELISA of NPTII in the HCV sub-genomic replicon, GS4.3, Section B. The class given is cell-based. The note with it: Hepatitis C virus, read-out: Replicon EC50. In a few lines: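 NPTII marker protein in lysates was quantified by ELISA read at 450 nm after 72 h inhibitor exposure (3-fold series, final DMSO 1%, G418-free medium) of HuH-7 cells stably harbouring the subgenomic HCV replicon. Values relative to DMSO-treated controls; 4-parameter curves gave EC50.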
In general terms: ELISA stands for enzyme-linked immunosorbent assay.

In another experiment the target is T1, NS3-NS4A protease (Hepatitis C virus genotype 1a, UniProt P27958).
T1 construct: Recombinant E. coli or Baculovirus full-length NS3 was diluted to 3.33 μM with assay buffer; made in house; host or cells: E. coli or baculovirus (BV) system
The experiment can be described thus: NS3-NS4A protease assay (NS3 inhibition assay, RETS1 substrate), Section B. The class given is biochemical. In a few lines: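 Kinetic fluorescence read (335 nm excitation, 495 nm emission, 30 min) of RETS1 cleavage by NS3/NS4A-2 complex, 2 nM E. coli or 3 nM baculovirus NS3, after 10 min room-temperature compound pre-incubation. Four-parameter-fit IC50s converted to Ki by Cheng–Prusoff, Ki=IC50/(1+[S]/Km).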

Usually EC50 stands for the concentration at which the effect is half-maximal. A word on the IC50: it is the concentration needed to halve the response being measured.

T1 sequence (P27958 1027-1657): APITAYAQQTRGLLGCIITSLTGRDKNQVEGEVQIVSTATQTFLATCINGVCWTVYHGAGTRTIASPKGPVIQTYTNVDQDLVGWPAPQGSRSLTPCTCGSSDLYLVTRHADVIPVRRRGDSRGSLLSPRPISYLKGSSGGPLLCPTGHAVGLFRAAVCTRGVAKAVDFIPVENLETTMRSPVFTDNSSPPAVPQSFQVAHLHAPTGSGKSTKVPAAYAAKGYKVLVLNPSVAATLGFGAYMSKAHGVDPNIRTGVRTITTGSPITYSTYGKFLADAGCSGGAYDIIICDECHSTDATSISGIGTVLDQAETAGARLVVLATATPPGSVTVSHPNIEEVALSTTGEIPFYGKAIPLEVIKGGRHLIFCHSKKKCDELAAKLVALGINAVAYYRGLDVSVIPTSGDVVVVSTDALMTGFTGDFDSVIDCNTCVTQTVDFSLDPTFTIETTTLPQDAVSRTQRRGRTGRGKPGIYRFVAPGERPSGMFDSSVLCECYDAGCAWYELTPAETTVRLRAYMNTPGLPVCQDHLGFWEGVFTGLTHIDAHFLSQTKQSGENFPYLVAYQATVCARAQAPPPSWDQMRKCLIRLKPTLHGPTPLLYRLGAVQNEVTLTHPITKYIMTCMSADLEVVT

As for `CC(C)(C)OC(=O)N[C@H]1CCCCC/C=C\[C@@H]2C[C@@]2(C(=O)NS(=O)(=O)C2CC2)NC(=O)[C@@H]2C[C@@H](OC(=O)N3Cc4cc(Cl)c(Cl)cc4C3)CN2C1=O` [AR00320121, (1S,4R,6S,14S,18R)-5,6-Dichloro-1,3-dihydro-isoindole-2-carboxylic acid 14-tert-butoxycarbonylamino-4-cyclopropanesulfonylaminocarbonyl-2,15-dioxo-3,16-diaza-tricyclo[14.3.0.0^4,6]nonadec-7-en-18-yl ester], the EC50 in experiment [1] (GS4.3 cells, 72 h incubation) was less than 100 nM. Also, at NS3-NS4A protease (read-out: NS3-NS4A IC50), the IC50 is less than 100 nM.

On to `O=C(N[C@H]1CCCCC/C=C\[C@@H]2C[C@@]2(C(=O)NS(=O)(=O)C2CC2)NC(=O)[C@@H]2C[C@@H](OC(=O)N3CCc4ccccc4C3)CN2C1=O)OC(CF)CF` [AR00320580, (1S,4R,6S,14S,18R)-3,4-Dihydro-1H-isoquinoline-2-carboxylic acid 4-cyclopropanesulfonylaminocarbonyl-14-(2-fluoro-1-fluoromethyl-ethoxycarbonylamino)-2,15-dioxo-3,16-diaza-tricyclo[14.3.0.0^4,6]nonadec-7-en-18-yl ester], for which the EC50 in experiment [1] (GS4.3 cells, 72 h incubation) was less than 100 nM. Besides, the IC50 on NS3-NS4A protease (read-out: NS3-NS4A IC50) is less than 100 nM.

With `CC(C)(C)OC(=O)N[C@H]1CCCCC/C=C\[C@@H]2C[C@@]2(C(=O)O)NC(=O)[C@@H]2C[C@@H](OC(=O)N3Cc4ccccc4C4(CCC4)C3)CN2C1=O` [AR00304065, (1S,4R,6S,14S,18R)-14-tert-Butoxycarbonylamino-18-(4,4-spirocyclobutyl-3,4-dihydro-1H-isoquinoline-2-carbonyloxy)-2,15-dioxo-3,16-diaza-tricyclo[14.3.0.0^4,6]nonadec-7-ene-4-carboxylic acid], the EC50 in experiment [1] (GS4.3 cells, 72 h incubation) was less than 10000 nM. Also, the IC50 at NS3-NS4A protease (read-out: NS3-NS4A IC50) was less than 1000 nM.

Regarding `O=C(N[C@H]1CCCCC/C=C\[C@@H]2C[C@@]2(C(=O)O)NC(=O)[C@@H]2C[C@@H](OC(=O)N3CCc4ccccc4C3)CN2C1=O)O[C@H]1CCOC1` [AR00304126, (1S,4R,6S,14S,18R)-18-(3,4-Dihydro-1H-isoquinoline-2-carbonyloxy)-2,15-dioxo-14-(tetrahydro-furan-3S-yloxycarbonylamino)-3,16-diaza-tricyclo[14.3.0.0^4,6]nonadec-7-ene-4-carboxylic acid], in experiment [1] (GS4.3 cells, 72 h incubation), the EC50 is less than 10000 nM. Further, at NS3-NS4A protease (read-out: NS3-NS4A IC50), the IC50 is less than 1000 nM.

For the molecule `C[C@H]1CN(C(=O)O[C@@H]2C[C@H]3C(=O)N[C@]4(C(=O)O)C[C@H]4C=CCCCCC[C@H](NC(=O)OC(C)(C)C)C(=O)N3C2)Cc2ccccc21` [AR00320122, (1S,4R,6S,14S,18R)-14-tert-Butoxycarbonylamino-18-(4R-methyl-3,4-dihydro-1H-isoquinoline-2-carbonyloxy)-2,15-dioxo-3,16-diaza-tricyclo[14.3.0.0^4,6]nonadec-7-ene-4-carboxylic acid], the EC50 in experiment [1] (GS4.3 cells, 72 h incubation) is less than 10000 nM. Also, on NS3-NS4A protease (read-out: NS3-NS4A IC50), the IC50 is less than 1000 nM.

For `CC(C)(C)NC(=O)N[C@H]1CCCCC/C=C\[C@@H]2C[C@@]2(C(=O)O)NC(=O)[C@@H]2C[C@@H](OC(=O)N3Cc4ccccc4C3)CN2C1=O` [AR00320078, (1S,4R,6S,14S,18R)-14-(3-tert-Butyl-ureido)-18-(1,3-dihydro-isoindole-2-carbonyloxy)-2,15-dioxo-3,16-diaza-tricyclo[14.3.0.0^4,6]nonadec-7-ene-4-carboxylic acid], the EC50 in experiment [1] (GS4.3 cells, 72 h incubation) is less than 10000 nM. Moreover, the IC50 at NS3-NS4A protease (read-out: NS3-NS4A IC50) is less than 100 nM.

Regarding `O=C(NC1CCCC1)N[C@H]1CCCCC/C=C\[C@@H]2C[C@@]2(C(=O)NS(=O)(=O)C2CC2)NC(=O)[C@@H]2C[C@@H](OC(=O)N3CCc4c(F)cccc4C3)CN2C1=O` [AR00304080, (1S,4R,6S,14S,18R)-5-Fluoro-3,4-dihydro-1H-isoquinoline-2-carboxylic acid 14-(3-cyclopentyl-ureido)-4-cyclopropanesulfonylaminocarbonyl-2,15-dioxo-3,16-diaza-tricyclo[14.3.0.0^4,6]nonadec-7-en-18-yl ester], in experiment [1] (GS4.3 cells, 72 h incubation), the EC50 was less than 100 nM. Further, at NS3-NS4A protease (read-out: NS3-NS4A IC50), the IC50 was less than 100 nM.

Regarding `O=C(N[C@H]1CCCCC/C=C\[C@@H]2C[C@@]2(C(=O)NS(=O)(=O)C2CC2)NC(=O)[C@@H]2C[C@@H](OC(=O)N3CCc4ccccc4[C@@H]3CN3CCCCC3)CN2C1=O)OC1CCCC1` [AR00320556, (1S,4R,6S,14S,18R)-1-Piperidin-1R-ylmethyl-3,4-dihydro-1H-isoquinoline-2-carboxylic acid 14-cyclopentyloxycarbonylamino-4-cyclopropanesulfonylaminocarbonyl-2,15-dioxo-3,16-diaza-tricyclo[14.3.0.0^4,6]nonadec-7-en-18-yl ester], the EC50 in experiment [1] (GS4.3 cells, 72 h incubation) is less than 100 nM. For the same molecule, the IC50 on NS3-NS4A protease (read-out: NS3-NS4A IC50) was less than 100 nM.

With `CC(C)(C)OC(=O)N[C@H]1CCCCC/C=C\[C@@H]2C[C@@]2(C(=O)O)NC(=O)[C@@H]2C[C@@H](OC(=O)N3Cc4ccccc4C3)CN2C1=O` [AR00291871, (1S,4R,6S,14S,18R)-14-tert-Butoxycarbonylamino-18-(1,3-dihydro-isoindole-2-carbonyloxy)-2,15-dioxo-3,16-diaza-tricyclo[14.3.0.0^4,6]nonadec-7-ene-4-carboxylic acid], in experiment [1] (GS4.3 cells, 72 h incubation), the EC50 is less than 1000 nM. For the same molecule, the IC50 on NS3-NS4A protease (read-out: NS3-NS4A IC50) is less than 100 nM.

Take `CC(C)(C)NC(=O)N[C@H]1CCCCC/C=C\[C@@H]2C[C@@]2(C(=O)NS(=O)(=O)C2CC2)NC(=O)[C@@H]2C[C@@H](OC(=O)N3Cc4cc(Cl)c(Cl)cc4C3)CN2C1=O` [AR00320447, (1S,4R,6S,14S,18R)-5,6-Dichloro-1,3-dihydro-isoindole-2-carboxylic acid 14-(3-tert-butyl-ureido)-4-cyclopropanesulfonylaminocarbonyl-2,15-dioxo-3,16-diaza-tricyclo[14.3.0.0^4,6]nonadec-7-en-18-yl ester]: the EC50 in experiment [1] (GS4.3 cells, 72 h incubation) is less than 1000 nM. At NS3-NS4A protease (read-out: NS3-NS4A IC50), the 50% inhibitory concentration (IC50) was less than 100 nM.

As to `CC(C)[C@@H](NC(=O)c1cccnc1)C(=O)N[C@H]1CCCCC/C=C\[C@@H]2C[C@@]2(C(=O)O)NC(=O)[C@@H]2C[C@@H](OC(=O)N3CCc4ccccc4C3)CN2C1=O` [AR00304073, (1S,4R,6S,14S,18R)-18-(3,4-Dihydro-1H-isoquinoline-2-carbonyloxy)-14-{3-methyl-2-[(pyridine-3-carbonyl)-amino]-butyrylamino}-2,15-dioxo-3,16-diaza-tricyclo[14.3.0.0^4,6]nonadec-7-ene-4-carboxylic acid], the EC50 in experiment [1] (72 h) is less than 10000 nM. This molecule registered an IC50 against NS3-NS4A protease of less than 1000 nM.

`CC(C)S(=O)(=O)NC(=O)[C@@]12C[C@H]1/C=C\CCCCC[C@H](NC(=O)OC(C)(C)C)C(=O)N1C[C@H](OC(=O)N3Cc4ccccc4C3)C[C@H]1C(=O)N2` [AR00333801, (1S,4R,6S,14S,18R)-1,3-Dihydro-isoindole-2-carboxylic acid 14-tert-butoxycarbonylamino-2,15-dioxo-4-(propane-2-sulfonylaminocarbonyl)-3,16-diaza-tricyclo[14.3.0.0^4,6]nonadec-7-en-18-yl ester]: the EC50 in experiment [1] (GS4.3 cells, 72 h incubation) was less than 100 nM. At NS3-NS4A protease (read-out: NS3-NS4A IC50), the IC50 is less than 100 nM.

As for `CC(C)(C)OC(=O)N[C@H]1CCCCC/C=C\[C@@H]2C[C@@]2(C(=O)NS(=O)(=O)C2CC2)NC(=O)[C@@H]2C[C@@H](OC(=O)N3Cc4ccc(OCCCN5CCOCC5)cc4C3)CN2C1=O` [AR00345075, (1S,4R,6S,14S,18R)-5-(3-Morpholin-4-yl-propoxy)-1,3-dihydro-isoindole-2-carboxylic acid 14-tert-butoxycarbonylamino-4-cyclopropanesulfonylaminocarbonyl-2,15-dioxo-3,16-diaza-tricyclo[14.3.0.0^4,6]nonadec-7-en-18-yl ester], in experiment [1] (GS4.3 cells, 72 h incubation), the EC50 is less than 1000 nM. The 50% inhibitory concentration (IC50) at NS3-NS4A protease (read-out: NS3-NS4A IC50) is less than 100 nM.

Consider `CC(C)(C)OC(=O)N[C@H]1CCCCC/C=C\[C@@H]2C[C@@]2(C(=O)NS(=O)(=O)c2ccc(Cl)s2)NC(=O)[C@@H]2C[C@@H](OC(=O)N3Cc4ccc(Cl)cc4C3)CN2C1=O` [AR00340173, (1S,4R,6S,14S,18R)-5-Chloro-1,3-dihydro-isoindole-2-carboxylic acid 14-tert-butoxycarbonylamino-4-(5-chloro-thiophene-2-sulfonylaminocarbonyl)-2,15-dioxo-3,16-diaza-tricyclo[14.3.0.0^4,6]nonadec-7-en-18-yl ester], for which, in experiment [1] (GS4.3 cells, 72 h incubation), the EC50 is less than 10000 nM. Besides, the IC50 on NS3-NS4A protease (read-out: NS3-NS4A IC50) was less than 100 nM.

In the case of `CC(C)(C)OC(=O)N[C@H]1CCCCC/C=C\[C@@H]2C[C@@]2(C(=O)NS(=O)(=O)C2CC2)NC(=O)[C@@H]2C[C@@H](OC(=O)N3CCc4c(F)cccc4C3)CN2C1=O` [AR00298996, (1S,4R,6S,14S,18R)-5-Fluoro-3,4-dihydro-1H-isoquinoline-2-carboxylic acid 14-tert-butoxycarbonylamino-4-cyclopropanesulfonylaminocarbonyl-2,15-dioxo-3,16-diaza-tricyclo[14.3.0.0^4,6]nonadec-7-en-18-yl ester], the EC50 in experiment [1] (GS4.3 cells, 72 h incubation) is less than 100 nM. Further, the IC50 on NS3-NS4A protease (read-out: NS3-NS4A IC50) is less than 100 nM.

With `CC(C)S(=O)(=O)NC(=O)[C@@]12C[C@H]1/C=C\CCCCC[C@H](NC(=O)OC(C)(C)C)C(=O)N1C[C@H](OC(=O)N3CCc4ccccc4C3)C[C@H]1C(=O)N2` [AR00261407, (1S,4R,6S,14S,18R)-3,4-Dihydro-1H-isoquinoline-2-carboxylic acid 14-tert-butoxycarbonylamino-2,15-dioxo-4-(propane-2-sulfonylaminocarbonyl)-3,16-diaza-tricyclo[14.3.0.0^4,6]nonadec-7-en-18-yl ester], the half-maximal effective concentration (EC50) in experiment [1] (72 h) was less than 1000 nM. Besides, the half-maximal inhibitory concentration (IC50) at NS3-NS4A protease (read-out: NS3-NS4A IC50) is less than 100 nM.
